Measurements: patent publication US20110077248A1, “IMIDAZOPYRIDINE AND RELATED ANALOGS AS SIRTUIN MODULATORS” (Sirtris Pharmaceuticals, Inc., priority 2008, published 2011)

Target: T1, SIRT1 (Homo sapiens, UniProt Q96EB6)
T1 construct: His-tag (N); made in house; host or cells: E. coli BL21(DE3), T7-promoter vector
T1 sequence (Q96EB6 1-747): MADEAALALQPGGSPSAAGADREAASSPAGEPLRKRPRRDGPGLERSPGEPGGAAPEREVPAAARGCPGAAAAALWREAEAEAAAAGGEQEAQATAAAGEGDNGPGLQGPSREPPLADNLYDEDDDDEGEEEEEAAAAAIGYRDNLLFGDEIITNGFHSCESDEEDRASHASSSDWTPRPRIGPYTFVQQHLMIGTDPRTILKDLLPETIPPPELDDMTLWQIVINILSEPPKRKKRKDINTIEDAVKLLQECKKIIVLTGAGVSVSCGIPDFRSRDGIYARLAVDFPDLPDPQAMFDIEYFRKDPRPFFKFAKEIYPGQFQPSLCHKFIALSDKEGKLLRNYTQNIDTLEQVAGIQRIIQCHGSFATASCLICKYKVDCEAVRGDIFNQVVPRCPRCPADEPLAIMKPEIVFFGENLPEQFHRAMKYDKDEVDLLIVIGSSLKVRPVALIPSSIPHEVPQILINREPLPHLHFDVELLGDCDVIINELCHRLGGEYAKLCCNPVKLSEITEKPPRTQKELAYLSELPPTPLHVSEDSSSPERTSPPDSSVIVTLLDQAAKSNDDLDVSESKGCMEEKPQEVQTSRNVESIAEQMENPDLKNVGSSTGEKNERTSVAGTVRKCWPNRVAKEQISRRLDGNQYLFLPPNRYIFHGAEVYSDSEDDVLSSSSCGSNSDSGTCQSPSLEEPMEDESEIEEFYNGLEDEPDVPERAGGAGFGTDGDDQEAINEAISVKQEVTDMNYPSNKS
Experiment: Mass spectrometry based assay for modulators of SIRT1 activity (deacetylation of p53-based acetylated peptide)
Format: biochemical
Conditions: for EC1.5: concentration of test compound that results in 150% activation of SIRT1, 0.5 μM peptide substrate, 120 μM βNAD+, 10 nM SIRT1, 25 min, 25° C.; for Emax: percent maximum fold activation of SIRT1
Summary of the method: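 Reaction: 10 nM His-tagged human SIRT1 (E. coli-expressed) with 0.5 μM 5TMR-labelled acetylated p53-derived peptide and 120 μM NAD+, 25 min at 25 °C, pH 8 Tris-acetate buffer; formic acid quench. Deacetylation quantified by mass spectrometry against a DMSO control; EC1.5 = concentration giving 150% activation.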

EC1.5 | Emax | SMILES
A (EC1.5<1.0 uM) | > 200% | O=C(Nc1nc(CN2CCOCC2)cs1)c1nccn2cc(-c3ccccc3C(F)(F)F)nc12 [Compound 258]
A (EC1.5<1.0 uM) | > 200% | O=C(Nc1cccc(CN2CCOCC2)n1)c1nccn2cc(-c3ccccc3C(F)(F)F)nc12 [Compound 259]
A (EC1.5<1.0 uM) | > 200% | O=C(Nc1nc(CN2CCOCC2)cs1)c1nccn2cc(-c3ccc(F)cc3C(F)(F)F)nc12 [Compound 260]
A (EC1.5<1.0 uM) | > 200% | O=C(Nc1cccc(CN2CCOCC2)n1)c1nccn2cc(-c3ccc(F)cc3C(F)(F)F)nc12 [Compound 261]
B (EC1.5 1-25 uM) | > 200% | O=C(Nc1nccs1)c1cccn2cc(-c3ccc(CN4CCOCC4)cc3)nc12 [Compound 262, 2-(4-(morpholinomethyl)phenyl)-N-(thiazol-2-yl)imidazo[1,2-a]pyridine-8-carboxamide]
C (EC1.5>25 uM) | < 200% | O=C(Nc1nccs1)c1cccn2nc(-c3ccc(F)cc3C(F)F)nc12 [Compound 263]
B (EC1.5 1-25 uM) | < 200% | O=C(Nc1nccs1)c1cccn2nc(-c3ccc(OCCN4CCOCC4)cc3C(F)F)nc12 [Compound 265, 2-(2-(difluoromethyl)-4-(2-morpholinoethoxy)phenyl)-N-(thiazol-2-yl)-[1,2,4]triazolo[1,5-a]pyridine-8-carboxamide]
